For one data set, the system named is KG-1 cells. The data set is described as follows: Antiproliferative activity, KG-1 cells (AlamarBlue). It is filed as cell-based. Conditions: Homo sapiens, KG-1, 120 h, 120 h incubation. The procedure:
(§1) Antiproliferative activity of CDK8 inhibitors according to the present invention was measured in a cell-based test on continuous cell cultures MV4-11 (biphenotypic myelomonocytic leukemia, ATCC® CRL-9591™), KG-1 (acute myeloid leukemia, ATCC® CCL-246™) using a vital stain AlamarBlue (ThermoFisher, #DAL1100). The cells were grown in RPMI-1640 (PanEco, #C330p) medium with addition of 10% FBS (Gibco, #16140-071); washed and resuspended in culture medium with 10% FBS (Gibco, #16140-071) in 96-well culture plates (Corning, #3599) with ≈10×10^3 cells in […] of medium per well. The compounds in question were dissolved in DMSO and diluted with a medium with 10% FBS (Gibco, #16140-071) to a final concentration ranging from 0 to 100 μM. […] of diluted compounds were then added to each well (final DMSO concentration was less than 1%) and incubated under 5% CO2 atmosphere at 37° C. for 120 h. After incubating, 15 μL/well of AlamarBlue (ThermoFisher, #DAL1100) reagent was added, contents of plates were mixed in an orbital shaker (Biosan, Latvia) and further incubated for 3-5 h at 37° C. under 5% CO2 atmosphere. Number of living cells was estimated using a microplate spectrophotometer (Tecan Infinite M200Pro, Switzerland) measuring fluorescent signal at the excitation wavelength (λEx) of 540 nm and emission wavelength (λEm) of 590 nm.
(§2) IC50 values were calculated using Magellan 7.2 software (Tecan, Switzerland) approximating experimental points by four-parameter logistic model with the optimization by Levenberg-Marquardt (Table 6).
A general note: Resazurin is reduced to fluorescent resorufin, in cell work by metabolically active cells.

Data set [1] in a line: Stability of the compounds in human blood plasma. It is filed as in vitro ADME. Conditions: pooled human blood plasma, 10 μM, 4 hours at 37° C. The procedure:
To assess the blood plasma stability of the compounds, we used pooled human blood plasma taken from ten healthy donors. The initial candidate solution (10 mM in DMSO) was diluted with pooled blood plasma to a concentration of 10 μm (test solution). The test solution was incubated in a dry block thermostat for 4 hours at 37° C. HPLC with Agilent 1200 liquid chromatography system (Agilent, USA) was employed to determine peak areas of the compounds in test samples, said peak areas corresponding to the initial test time (prior to incubation) and the final test time (after incubation in a dry block thermostat for 4 hours at 37° C.), proteins were preliminarily precipitated with acetonitrile. Chromatographic analysis was performed in a gradient elution regime with a flow rate of 1 mL/min Substance amount in % in a sample after thermostatting was determined.
The stability of the compounds was estimated. The compounds described herein show at least 90% chemical stability, i.e. they are chemically stable in human blood plasma (Table 2).

A short description of data set [2]: Enzyme stability in human liver S9 fractions (Phase II). It is filed as in vitro ADME. The note with it: pH 7.4; 0.5 mg/mL pooled human liver S9 fractions, 10 μM compound, 37° C.; read-out: Enzyme stability Liver S9 fraction CLint. The procedure:
Measuring of enzyme stability of the present compounds enabled estimation of their stability towards the action of Phase II biotransformation enzymes.
Enzyme degradation rate was measured by incubating the reaction mixture in a dry block thermostat at 37° C., said reaction mixture comprising 0.5 mg/mL of pooled human liver S9 fractions (XenoTech, USA, cat #H0610), 10 μM compound, 2 mM β-nicotinamide adenine dinucleotide (Carbosynth, UK, cat #NN10871) and 4 mM magnesium chloride in 0, 1 M sodium-phosphate buffer, pH=7, 4. The reaction was quenched with acetonitrile (100 μL of acetonitrile/100 μL of the reaction mixture). After quenching, the samples were centrifuged at 10000 rpm for 10 minutes. Supernatant fluid was tested by chromatographic technique using Agilent1200 (Agilent, USA). Chromatographic analysis was performed in a gradient elution regime with a flow rate of 1 mL/min A graph of the logarithm of substance's peak area as a function of time was made. The dependent factor of the line corresponded to the elimination rate constant K based on which the drug's half-life T½ and degradation rate CLint were calculated:
Based on the data obtained, candidates' enzyme stability in human liver S9 fractions was determined.

Data set [3] is described as follows: Enzyme stability in human liver microsomes (Phase I). It is filed as in vitro ADME. Conditions: pH 7.4; 0.5 mg/mL pooled human liver microsomes, 10 μM compound, 37° C. The procedure:
Measuring of enzyme stability of the present compounds enabled estimation of their stability towards the action of Phase I biotransformation enzymes.
The rate of enzymatic decomposition of a compound was detected by incubating the reaction mixture in a dry block heater at 37° C.; the reaction mixture contained 0.5 mg/mL of pooled human liver microsomes (XenoTech, USA, cat #H6010), 10 μM of a compound, 2 mM β-nicotinamide adenine dinucleotide (Carbosynth, UK, cat #NN10871) and 4 mM of magnesium chloride in 0.1M sodium phosphate buffer (pH=7.4). The reaction was quenched with acetonitrile (100 μL of acetonitrile/100 μL of the reaction mixture). After quenching, the samples were centrifuged at 10000 rpm for 10 minutes. Supernatant fluid was tested by chromatographic technique using Agilent1200 (Agilent, USA). Chromatographic analysis was performed in a gradient elution regime with a flow rate of 1 mL/min. A graph of the logarithm of substance's peak area as a function of time was made. The dependent factor of the line corresponded to the elimination rate constant K based on which the drug's half-lif½e T and degradation rate CLint were calculated:
Based on the data obtained, candidates' enzyme stability in human liver microsomes was determined.
For orientation: Microsomes from liver hold many membrane-bound enzymes, among them those of drug oxidation.

The next data set relates to MV4-11 cells. The data set is described as follows: Antiproliferative activity, MV4-11 cells (AlamarBlue). It is filed as cell-based. The note with it: Homo sapiens, 120 h incubation, read-out: MV-4-11 IC50. How it is done: as §1, §2

By IC50 is commonly meant the point on the concentration scale where inhibition reaches its midpoint.

Each structure is given as a SMILES string.

On to `COCCn1cc(-c2ccc(-c3cnc(N)c4ncc(C(=O)NC5CC5)cc34)cc2)cn1` [Compound 3.48], for which the figures for the IC50 with KG-1 cells and in the data set with MV4-11 cells were 2.7 nM and 3.9 nM, respectively. Besides, the “Chemical stability in human blood plasma 4 h, %” value in data set [1] came to 98.4%. Also, the microsomal CLint at 10 μM in data set [2] turned out to be 2.5 µL/min/mg; in data set [3] it was 18 µL/min/mg.
Take `CN(C)C(=O)Cn1cc(-c2ccc(-c3cnc(N)c4ncc(C(=O)N5CCC5)cc34)cc2)cn1` [Compound 3.52, 2-(4-(4-(8-amino-3-(azetidine-1-carbonyl)-1,7-naphthyridine-5-yl)phenyl)-1H-pyrazole-1-yl)-N,N-dimethylacetamide]: the half-inhibitory concentration (IC50) in the data set on KG-1 cells was 1.2 nM; in the data set on MV4-11 cells, 0.9 nM. Moreover, the “Chemical stability in human blood plasma 4 h, %” value in data set [1] was 100.0%. The microsomal CLint at 10 μM was 2.4 µL/min/mg in data set [2] and 7 µL/min/mg in data set [3].
The matching figures for `COCCn1cc(-c2ccc(-c3cnc(N)c4ncc(C(=O)NCC5CC5)cc34)cc2)cn1` [Compound 3.45, 8-amino-N-(cyclopropylmethyl)-5-(4-(1-(2-methoxyethyl)-1H-pyrazole-4-yl)phenyl)-1,7-naphthyridine-3-carboxamide]: 0.1 nM, 3.4 nM, 91.2%, 1.1 µL/min/mg and 39.6 µL/min/mg.
